Each molecule was assayed against T1, ATM (Homo sapiens, UniProt Q13315) (assay: ATM inhibition test (phosphorylation of Chk2 generated by ionizing radiation, AlphaScreen SureFire)). Conditions: phosphorylated Chk2 in NCI-H460 cells, ionizing radiation 8Gy, 1 hour after test compound treatment; read-out: ATM inhibitory activity.
T1 construct: detecting phosphorylation of Chk2 in a human non-small cell lung cancer cell line NCI-H460 (ATCC company); host or cells: NCI-H460 human non-small cell lung cancer cells
Assay type: cell-based
Outline: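 In NCI-H460 cells, radiation-triggered Chk2 phosphorylation (8Gy, 1 h) is detected by AlphaScreen SureFire following 1 h compound exposure.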

T1 sequence (Q13315 whole entry): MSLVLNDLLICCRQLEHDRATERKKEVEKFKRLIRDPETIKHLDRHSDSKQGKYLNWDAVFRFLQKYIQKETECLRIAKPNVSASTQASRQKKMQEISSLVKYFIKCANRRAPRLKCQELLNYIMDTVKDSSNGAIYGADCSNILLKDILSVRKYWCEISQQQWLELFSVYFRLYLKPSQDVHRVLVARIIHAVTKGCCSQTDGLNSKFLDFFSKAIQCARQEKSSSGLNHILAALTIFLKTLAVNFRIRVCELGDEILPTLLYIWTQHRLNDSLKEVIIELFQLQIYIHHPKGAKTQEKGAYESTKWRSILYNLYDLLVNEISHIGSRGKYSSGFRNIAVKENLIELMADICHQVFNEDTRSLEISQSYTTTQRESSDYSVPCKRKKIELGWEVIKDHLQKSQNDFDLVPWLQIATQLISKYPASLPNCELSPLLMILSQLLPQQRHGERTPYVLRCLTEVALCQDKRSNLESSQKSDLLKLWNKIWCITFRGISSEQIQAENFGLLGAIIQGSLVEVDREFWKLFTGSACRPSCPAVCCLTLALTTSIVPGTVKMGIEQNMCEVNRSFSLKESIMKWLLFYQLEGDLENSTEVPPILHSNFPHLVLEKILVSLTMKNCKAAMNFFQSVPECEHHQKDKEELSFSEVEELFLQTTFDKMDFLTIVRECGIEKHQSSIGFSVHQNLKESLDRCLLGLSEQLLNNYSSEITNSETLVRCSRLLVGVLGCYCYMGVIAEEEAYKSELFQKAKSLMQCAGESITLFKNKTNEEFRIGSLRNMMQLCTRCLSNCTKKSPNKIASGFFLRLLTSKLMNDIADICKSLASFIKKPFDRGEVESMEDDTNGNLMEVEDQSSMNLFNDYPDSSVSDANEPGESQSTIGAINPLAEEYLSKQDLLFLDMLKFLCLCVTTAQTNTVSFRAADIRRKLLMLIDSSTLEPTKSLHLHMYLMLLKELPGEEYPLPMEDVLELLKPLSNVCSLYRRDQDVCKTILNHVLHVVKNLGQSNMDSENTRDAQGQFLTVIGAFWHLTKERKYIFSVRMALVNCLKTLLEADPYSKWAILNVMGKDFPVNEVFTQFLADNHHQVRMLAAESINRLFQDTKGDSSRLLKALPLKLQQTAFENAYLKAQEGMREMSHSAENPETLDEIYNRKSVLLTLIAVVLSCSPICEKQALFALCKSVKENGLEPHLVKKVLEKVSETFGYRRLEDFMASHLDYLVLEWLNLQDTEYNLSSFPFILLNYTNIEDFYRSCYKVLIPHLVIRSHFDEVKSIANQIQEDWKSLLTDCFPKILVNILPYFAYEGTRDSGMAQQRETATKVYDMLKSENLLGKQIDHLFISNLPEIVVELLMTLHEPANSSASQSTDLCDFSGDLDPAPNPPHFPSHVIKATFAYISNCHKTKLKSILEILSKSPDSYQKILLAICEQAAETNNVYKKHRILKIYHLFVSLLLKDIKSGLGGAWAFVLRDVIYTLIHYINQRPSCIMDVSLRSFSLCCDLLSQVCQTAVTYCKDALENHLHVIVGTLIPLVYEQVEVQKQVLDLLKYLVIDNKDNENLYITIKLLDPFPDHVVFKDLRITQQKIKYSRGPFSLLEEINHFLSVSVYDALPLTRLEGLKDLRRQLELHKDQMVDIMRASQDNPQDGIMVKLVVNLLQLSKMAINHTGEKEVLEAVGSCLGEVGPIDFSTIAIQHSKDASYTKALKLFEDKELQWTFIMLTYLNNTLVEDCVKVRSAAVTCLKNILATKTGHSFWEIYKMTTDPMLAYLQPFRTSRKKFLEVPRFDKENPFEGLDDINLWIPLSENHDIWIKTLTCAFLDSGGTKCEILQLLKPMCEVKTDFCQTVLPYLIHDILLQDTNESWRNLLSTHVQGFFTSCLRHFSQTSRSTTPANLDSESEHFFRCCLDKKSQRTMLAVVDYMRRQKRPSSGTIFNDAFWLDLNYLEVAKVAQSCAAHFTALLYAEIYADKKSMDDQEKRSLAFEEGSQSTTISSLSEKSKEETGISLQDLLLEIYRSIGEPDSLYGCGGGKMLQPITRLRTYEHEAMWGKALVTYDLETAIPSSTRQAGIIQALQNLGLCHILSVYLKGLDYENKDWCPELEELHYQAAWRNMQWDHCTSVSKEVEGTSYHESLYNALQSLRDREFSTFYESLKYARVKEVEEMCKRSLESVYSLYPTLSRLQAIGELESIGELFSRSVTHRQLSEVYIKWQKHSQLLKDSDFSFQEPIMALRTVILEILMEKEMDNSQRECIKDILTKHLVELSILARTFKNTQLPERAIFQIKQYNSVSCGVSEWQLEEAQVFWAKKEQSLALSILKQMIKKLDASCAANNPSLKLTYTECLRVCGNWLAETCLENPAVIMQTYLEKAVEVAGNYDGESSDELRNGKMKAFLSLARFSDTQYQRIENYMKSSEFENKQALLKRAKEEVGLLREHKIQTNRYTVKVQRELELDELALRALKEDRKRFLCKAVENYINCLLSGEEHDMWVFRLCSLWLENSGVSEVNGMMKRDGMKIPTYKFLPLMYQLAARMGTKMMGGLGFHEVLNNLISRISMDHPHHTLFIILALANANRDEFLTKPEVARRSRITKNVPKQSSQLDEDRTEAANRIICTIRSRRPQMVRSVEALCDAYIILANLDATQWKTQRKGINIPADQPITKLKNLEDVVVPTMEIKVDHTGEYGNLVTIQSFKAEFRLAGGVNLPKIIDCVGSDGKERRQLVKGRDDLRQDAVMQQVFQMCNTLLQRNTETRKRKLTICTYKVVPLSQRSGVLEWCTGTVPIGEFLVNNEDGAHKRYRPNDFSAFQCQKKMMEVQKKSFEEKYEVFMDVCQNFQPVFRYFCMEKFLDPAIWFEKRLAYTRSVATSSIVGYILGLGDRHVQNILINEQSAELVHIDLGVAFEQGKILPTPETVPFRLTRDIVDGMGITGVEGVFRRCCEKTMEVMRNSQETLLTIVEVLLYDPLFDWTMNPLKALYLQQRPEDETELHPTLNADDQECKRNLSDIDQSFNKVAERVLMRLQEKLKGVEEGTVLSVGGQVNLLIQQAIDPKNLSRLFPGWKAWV

IC50 [µM]	SMILES
0.1 to 0.5	COC[C@H](CN(C(C)C)C(C)C)Nc1ccc2c(c1)Sc1cccc(-c3cc(N4CCOCC4)cc(=O)[nH]3)c1S2 [Example 1-46-14, (S)-6-(7-((1-(Diisopropylamino)-3-methoxypropan-2-yl)amino)thianthren-1-yl)-4-morpholino pyridin-2(1H)-one]
0.1 to 0.5	COc1ccncc1CN1CCC(Nc2ccc3c(c2)Sc2cccc(-c4cc(N5CCOCC5)cc(=O)[nH]4)c2S3)C1 (stereo not drawn) [Example 1-24-10, 6-(7-((1-((4-Methoxypyridin-3-yl)methyl)pyrrolidin-3-yl)amino)thianthren-1-yl)-4-morpholino pyridin-2(1H)-one]
< 0.1	Cc1cnc(C(CCN(C)C)Nc2ccc3c(c2)Sc2cccc(-c4cc(N5CCOCC5)cc(=O)[nH]4)c2O3)cn1 (single isomer, unassigned) [Example 10-7, 6-(8-((3-(Dimethylamino)-1-(5-methylpyrazin-2-yl)propyl)amino)phenoxathiin-4-yl)-4-morpholinopyridin-2(1H)-one]
0.5 to 2	CC(Nc1ccc2c(c1)Cc1cccc(-c3cc(N4CCOCC4)cc(=O)[nH]3)c1O2)C1CC1 (stereo not drawn) [Example 2-14-70, 6-(7-((1-Cyclopropylethyl)amino)-9H-xanthen-4-yl)-4-morpholino pyridin-2(1H)-one]
0.1 to 0.5	O=c1cc(N2CCOCC2)cc(-c2cccc3c2Oc2ccc(NCc4ccc(N5CCOCC5)nc4)cc2C3)[nH]1 [Example 2-2-6, 4-Morpholino-6-(7-(((6-morpholinopyridin-3-yl)methyl)amino)-9H-xanthen-4-yl)pyridin-2(1H)-one]
0.5 to 2	O=C(N[C@H]1CC[C@H](Nc2ccc3c(c2)Cc2cccc(-c4cc(N5CCOCC5)cc(=O)[nH]4)c2O3)CC1)OCc1ccccc1 [Example 2-2-54, Benzyl ((trans)-4-((5-(4-morpholino-6-oxo-1,6-dihydropyridin-2-yl)-9H-xanthen-2-yl)amino)cyclohexyl)carbamate]
0.1 to 0.5	CNc1ncccc1CNc1ccc2c(c1)Sc1cccc(-c3cc(N4CCOCC4)cc(=O)[nH]3)c1O2 [Example 4-8-21, 6-(8-(((2-(Methylamino)pyridin-3-yl)methyl)amino)phenoxathiin-4-yl)-4-morpholino pyridin-2(1H)-one]
0.1 to 0.5	O=c1cc(N2CCOCC2)cc(-c2cccc3c2Sc2ccc(NC4CCN(Cc5ccccn5)CC4)cc2S3)[nH]1 [Example 1-24-19, 4-Morpholino-6-(7-((1-(pyridin-2-ylmethyl)piperidin-4-yl)amino)thianthren-1-yl)pyridin-2 (1H)-one]
0.1 to 0.5	COc1cnccc1CNc1ccc2c(c1)Sc1cccc(-c3cc(N4CCOCC4)cc(=O)[nH]3)c1O2 [Example 4-4-23, 6-(8-(((3-Methoxypyridin-4-yl)methyl)amino)phenoxathiin-4-yl)-4-morpholino pyridin-2(1H)-one]
0.1 to 0.5	CN(C)C(=O)Nc1ncc(CNc2ccc3c(c2)Sc2cccc(-c4cc(N5CCOCC5)cc(=O)[nH]4)c2S3)cn1 [Example 1-12-47]
0.1 to 0.5	CC(Nc1ccc2c(c1)Sc1cccc(-c3cc(N4CCOCC4)cc(=O)[nH]3)c1S2)c1cccc(CN(C)C)n1 (stereo not drawn) [Example 1-12-111, 6-(7-((1-(6-((Dimethylamino)methyl)pyridin-2-yl)ethyl)amino)thianthren-1-yl)-4-morpholino pyridin-2(1H)-one]
< 0.1	O=c1cc(N2CCOCC2)cc(-c2cccc3c2Sc2ccc(NCc4cncc(-c5cccnc5)c4)cc2S3)[nH]1 [Example 1-12-21, 6-(7-(([3,3′-Bipyridin]-5-ylmethyl)amino)thianthren-1-yl)-4-morpholino pyridin-2 (1H)-one]
0.1 to 0.5	Cc1cnc(CNc2ccc3c(c2)Cc2cccc(-c4cc(N5CCOCC5)cc(=O)[nH]4)c2O3)s1 [Example 2-14-47, 6-(7-(((5-Methylthiazol-2-yl)methyl)amino)-9H-xanthen-4-yl)-4-morpholino pyridin-2(1H)-one]
0.1 to 0.5	CC1CC(C)CN(CC(CO)Nc2ccc3c(c2)Sc2cccc(-c4cc(N5CCOCC5)cc(=O)[nH]4)c2S3)C1 (stereo not drawn) [Example 1-37-5, 6-(7-((1-(3,5-Dimethylpiperidin-1-yl)-3-hydroxypropan-2-yl)amino)thianthren-1-yl)-4-morpholino pyridin-2 (1H)-one]
0.1 to 0.5	CC(Nc1ccc2c(c1)Cc1cccc(-c3cc(N4CCOCC4)cc(=O)[nH]3)c1O2)c1cccs1 (stereo not drawn) [Example 2-14-44, 4-Morpholino-6-(7-((1-(thiophen-2-yl)ethyl)amino)-9H-xanthen-4-yl) pyridin-2(1H)-one]
0.1 to 0.5	CN1CCN(c2cccc(CNc3ccc4c(c3)Sc3cccc(-c5cc(N6CCOCC6)cc(=O)[nH]5)c3S4)n2)CC1 [Example 1-12-33, 6-(7-(((6-(4-Methylpiperazin-1-yl)pyridin-2-yl)methyl)amino)thianthren-1-yl)-4-morpholino pyridin-2 (1H)-one]
0.1 to 0.5	Cc1nccnc1CNc1ccc2c(c1)Cc1cccc(-c3cc(N4CCOCC4)cc(=O)[nH]3)c1O2 [Example 2-14-75, 6-(7-(((3-Methylpyrazin-2-yl)methyl)amino)-9H-xanthen-4-yl)-4-morpholino pyridin-2(1H)-one]

IC50 [µM]	SMILES
0.1 to 0.5	COCCN(CCOC)C[C@@H](COC)Nc1ccc2c(c1)Sc1cccc(-c3cc(N4CCOCC4)cc(=O)[nH]3)c1S2 [Example 1-46-3, (S)-6-(7-((1-(bis(2-methoxyethyl)amino)-3-methoxypropan-2-yl)amino)thianthren-1-yl)-4-morpholinopyridin-2(1H)-one]
0.1 to 0.5	CNCCC(Nc1ccc2c(c1)Sc1cccc(-c3cc(N4CCOCC4)cc(=O)[nH]3)c1S2)c1cccc(C)n1 (stereo not drawn) [Example 1-20-12, 6-(7-((3-(Methylamino)-1 (6-methyl pyridin-2-yl)propyl)amino)thianthren-1-yl)-4-morpholino pyridin-2 (1H)-one]
0.1 to 0.5	CC(Nc1ccc2c(c1)Sc1cccc(-c3cc(N4CCOCC4)cc(=O)[nH]3)c1S2)[C@H](C)N1CCOCC1 (stereo partly drawn) [Example 1-21-5, 6-(7-(((3 S)-3-morpholinobutan-2-yl)amino)thianthren-1-yl)-4-morpholinopyridin-2(1H)-one]
0.1 to 0.5	COc1ccc(CCN2CCCC(Nc3ccc4c(c3)Sc3cccc(-c5cc(N6CCOCC6)cc(=O)[nH]5)c3O4)CC2)cc1 (stereo not drawn) [Example 4-7, 6-(8-((1-(4-Methoxyphenethyl)azepan-4-yl)amino)phenoxathiin-4-yl)-4-morpholinopyridin-2(1H)-one]
0.1 to 0.5	CC(Nc1ccc2c(c1)Cc1cccc(-c3cc(N4CCOCC4)cc(=O)[nH]3)c1O2)c1cc(C#N)ncn1 (stereo not drawn) [Example 2-14-60, 6-(1-((5-(4-Morpholino-6-oxo-1,6-dihydropyridin-2-yl)-9H-xanthen-2-yl)amino)ethyl)pyrimidine-4-carbonitrile]
0.1 to 0.5	O=c1cc(N2CCOCC2)cc(-c2cccc3c2Sc2ccc(NCc4ccncn4)cc2S3)[nH]1 [Example 1-12-36, 4-Morpholino-6-(7-((pyrimidin-4-ylmethyl)amino)thianthren-1-yl) pyridin-2(1H)-one]
0.1 to 0.5	O=c1cc(N2CCOCC2)cc(-c2cccc3c2Sc2ccc(NCCN4CCCC4)cc2S3)[nH]1 [Example 1-10-11]
0.1 to 0.5	COc1cncc(C(CO)Nc2ccc3c(c2)Sc2cccc(-c4cc(N5CCOCC5)cc(=O)[nH]4)c2S3)n1 (stereo not drawn) [Example 1-12-79, 6-(7-((2-Hydroxy-1-(6-methoxypyrazin-2-yl)ethyl)amino)thianthren-1-yl)-4-morpholino pyridin-2(1H)-one]
0.1 to 0.5	Cc1ccc(C(CCCN(C)C)Nc2ccc3c(c2)Sc2cccc(-c4cc(N5CCOCC5)cc(=O)[nH]4)c2S3)nc1 (single isomer, unassigned) [Example 1-51-4, 6-(7-((4-(Dimethylamino)-1-(5-methylpyridin-2-yl)butyl)amino)thianthren-1-yl)-4-morpholino pyridin-2(1H)-one]
0.1 to 0.5	N#Cc1cccc(CNc2cccc3c2Cc2cccc(-c4cc(N5CCOCC5)cc(=O)[nH]4)c2O3)c1 [Example 2-56-4, 3-(((5-(4-Morpholino-6-oxo-1,6-dihydropyridin-2-yl)-9H-xanthen-1-yl)amino)methyl)benzonitrile]
0.1 to 0.5	COC1CCN(CCNc2ccc3c(c2)Sc2cccc(-c4cc(N5CCOCC5)cc(=O)[nH]4)c2S3)CC1 [Example 1-10-15, 6-(7-((2-(4-Methoxypiperidin-1-yl)ethyl)amino)thianthren-1-yl)-4-morpholino pyridin-2(1H)-one]
0.1 to 0.5	O=c1cc(N2CCOCC2)cc(-c2cccc3c2Sc2ccc(NC4CCCN(C5CCOCC5)C4)cc2S3)[nH]1 (stereo not drawn) [Example 1-24-7, 4-Morpholino-6-(7-((1-(tetrahydro-2H-pyran-4-yl)piperidin-3-yl)amino)thianthren-1-yl)pyridin-2 (1H)-one]
0.1 to 0.5	O=c1cc(N2CCOCC2)cc(-c2cccc3c2Oc2ccc(NC4CCNCC4)cc2S3)[nH]1 [Example 4-9, 4-Morpholino-6-(8-(piperidin-4-ylamino)phenoxathiin-4-yl)pyridin-2(1H)-one]
0.1 to 0.5	CCCC(Nc1ccc2c(c1)Sc1cccc(-c3cc(N4CCOCC4)cc(=O)[nH]3)c1S2)c1ccc(C)cn1 (stereo not drawn) [Example 1-12-119, 6-(7-((1-(5-Methylpyridin-2-yl)butyl)amino)thianthren-1-yl)-4-morpholino pyridin-2 (1H)-one]
0.1 to 0.5	O=c1cc(N2CCOCC2)cc(-c2cc(F)cc3c2Oc2ccc(NCc4cncc(Cl)c4)cc2C3)[nH]1 [Example 2-48-3, 6-(7-(((5-Chloropyridin-3-yl)methyl)amino)-2-fluoro-9H-xanthen-4-yl)-4-morpholinopyridin-2(1H)-one]
0.1 to 0.5	Cc1ccc(C(CCN(C)CCCN(C)C)Nc2ccc3c(c2)Sc2cccc(-c4cc(N5CCOCC5)cc(=O)[nH]4)c2S3)nc1 (single isomer, unassigned) [Example 10-5-2, 6-(7-((3-((3-(Dimethylamino)propyl)(methyl)amino)-1-(5-methylpyridin-2-yl)propyl)amino)thianthren-1-yl)-4-morpholinopyridin-2(1H)-one]
